Measured values reported in article PMC10475101, “Selective steroidogenic cytochrome P450 haem iron ligation by steroid-derived isonitriles” (Communications Chemistry, 2023).
“And” between values parts separate entries of the source, which are not always exact repeats. Identical values can stand only once.

Tests used:
[1] = molecular target: T1, CYP3A4 (Homo sapiens, UniProt P08684); assay: in vitro; type: binding
T1 construct: made in house
Procedure: (Adapted from DeVore, et al.)[25] Ligand interaction with the heme iron was evaluated by titrating ligands into a cuvette containing purified CYP17A1[14], CYP2D6 L230D/L231R[26], or CYP3A4[27] and measured using a UV-visible scanning spectrophotometer. Enzyme was diluted to 0.2 µM in 100 mM potassium phosphate buffer (pH 7.4), 20% glycerol, and 100 mM sodium chloride and divided equally between two 5 mL cuvettes to evaluate high-affinity binding. Ligands dissolved in dimethylsulfoxide (DMSO) were added to the sample cuvette and an equal volume of DMSO to the reference cuvette. Difference spectra were recorded from 300 to 500 nm after equilibration of enzyme and ligand. Binding to the enzyme was measured as the difference in maximal and minimal absorbance: A387—A419 for pregnanolone and 3-formyl pregnanolone, and A435—A393 for compound 1 with CYP17A1; A434—A414 for compound 1 with CYP3A4 and CYP2D6. The dissociation constant and maximum spectral change were calculated using tight-binding or quadratic equation. All data fitting was accomplished using GraphPad Prism 9. Details of fitting are provided in Supplementary Information, and numerical data used to generate graphs in Figs. 2, 4 and 5 are provided in Supplementary Data 3 in Excel format.

[2] = molecular target: T1, CYP3A4
Procedure: Reduction of the 1-bound P450 complex was observed by taking a baseline absorbance reading from 400 to 500 nm using a UV-visible scanning spectrophotometer, of a 1 cm quartz cuvette containing 1 µM P450, with compound 1 at a saturating concentration (i.e., ≥ concentration needed to reach ΔAmax), in binding assay buffer (100 mM potassium phosphate buffer (pH 7.4), 20% glycerol, and 100 mM sodium chloride). A small quantity of sodium dithionite (spatula tip-full) was then added to the cuvette, and the spectra were recorded periodically over time to observe the formation of peaks indicating the reduction (~426 and 456 nm) and subsequent reoxidation (~435 nm) of the complex. The total time course for Fig. 6B was 103 min and 37 s. Numerical data used to generate graphs in Fig. 6 are provided in Supplementary Data 3 in Excel format.
185 S2) Ligand binding and inhibition assays
186 Reduction and reoxidation assays. Reduction of the isonitrile-bound P450 complex was observed by taking
187 a baseline absorbance reading from 400 to 500 nm using a UV-visible scanning spectrophotometer, of a 1cm
188 quartz cuvette containing 1 µM P450, with the selected isonitrile compound at a saturating concentration
189 (i.e., ≥ concentration needed to reach ΔAmax), in the same buffer used for binding assays (100 mM potassium
190 phosphate buffer (pH 7.4), 20% glycerol, and 100 mM sodium chloride). A small quantity of sodium dithionite
191 (spatula tip-full) was then added to the cuvette, and the spectra were recorded periodically over time to
192 observe the formation of peaks indicating the reduction (~426 and 456 nm) and subsequent reoxidation
193 (~435 nm) of the complex. The total time course for Figure 6B was 103 minutes and 37 seconds. […]
217 initiated by adding NADPH to a final concentration of 1 mM. After 20 minutes, metabolism was quenched
218 by adding 50 µL acetonitrile and placed on ice. The reaction vials were centrifuged at 5000 xg for 5 minutes
219 to pellet the precipitated protein, then the supernatant was injected onto a C18 column (Phenomenex, Luna,
220 50 x 4.6 mm) for HPLC. Separation on HPLC was obtained using a mobile phase of 45%/55% water/methanol
221 for 40 minutes. A standard curve of known product concentrations was used to convert the area under the
222 curve to the amount of product produced.
224 S3) Crystallization of 1-CYP17A1 complex and X-ray diffraction
225 Protein Crystallization and Structure Determination. CYP17A1 was saturated with 3β-formyl-5α
226 pregnanolone-20(R)-isonitrile (verified by 430 nm Soret peak) and prepared for crystallization via hanging

[3] = CYP3A4/20-(R)-1 complex reduced by sodium dithionite

T1 sequence (P08684 whole entry): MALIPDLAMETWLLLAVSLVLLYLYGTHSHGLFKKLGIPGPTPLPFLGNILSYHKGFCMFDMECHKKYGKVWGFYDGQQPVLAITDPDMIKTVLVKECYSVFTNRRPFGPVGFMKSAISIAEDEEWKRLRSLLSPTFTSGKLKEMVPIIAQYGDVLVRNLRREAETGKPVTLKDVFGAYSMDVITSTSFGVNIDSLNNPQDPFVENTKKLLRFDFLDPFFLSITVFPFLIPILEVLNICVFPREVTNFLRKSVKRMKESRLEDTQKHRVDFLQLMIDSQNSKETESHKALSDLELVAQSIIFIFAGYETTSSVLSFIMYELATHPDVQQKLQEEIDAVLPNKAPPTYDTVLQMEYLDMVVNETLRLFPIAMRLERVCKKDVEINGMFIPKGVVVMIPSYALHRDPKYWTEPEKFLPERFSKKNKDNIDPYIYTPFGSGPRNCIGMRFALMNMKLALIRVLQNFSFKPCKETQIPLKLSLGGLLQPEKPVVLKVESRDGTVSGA

[C-]#[N+][C@H](C)[C@H]1CC[C@H]2[C@@H]3CC[C@H]4C[C@@H](OC=O)CC[C@]4(C)[C@H]3CC[C@]12C [Compound 1, 3β-formyl-5α-pregnanolone-(R)-20-isonitrile]
contribution of Fe—C dative bond to the free energy of complexation ([1]; CYP3A4, from Kd of 20-(R)-1 versus parent steroid): ~ 6 kJ/mol
dissociation constant for CYP3A4 relative to CYP17A1 ([1]; CYP3A4 versus CYP17A1): more than a billion times higher
Kd ([1]; human, pH 7.4, dissociation constant (Kd), protein 200 nM, 5 cm cuvette, tight-binding or quadratic equation, Fig. 4B: n = 3, 95% CI 120–215 nM): 167 nM
Soret shift on titration indicating Fe—CN—R bond formation ([1]; titration of CYP3A4): 435 nm
difference spectrum peak indicative of Fe—CN bond formation ([1]; titration of CYP3A4): 435 nm
Soret peak after reoxidation in air ([2]; CYP3A4/20-(R)-1, 103 min): ~ 435 nm and 437.5 nm
reoxidation of reduced complex in air ([2]; CYP3A4/20-(R)-1, 103 min): slowly re-oxidizes
split Soret after reduction, higher-wavelength maximum [2, 3]: 454 nm
split Soret after reduction, lower-wavelength maximum [2, 3]: 428 nm
